One compound from ChEMBL document CHEMBL1132989, “A novel macromolecular prodrug concept exploiting endogenous serum albumin as a drug carrier for cancer chemotherapy” (2000) can be followed below.

The experiment can be described thus: Dose required for antitumor efficacy tested in vivo against primary kidney tumors in murine renal carcinoma (RENCA). The experiment is classed as functional, Mus musculus.

As to `COc1cccc2c1C(=O)c1c(O)c3c(c(O)c1C2=O)C[C@@](O)(/C(CO)=N/NC(=O)Cc1ccc(N2C(=O)C=CC2=O)cc1)C[C@@H]3OC1CC(C)C(O)C(N)C1.Cl` (stereo partly specified), the Dose worked out at 80 mM/kg.
